The values that follow are results of earlier work, collected in US6552066B1, “Protein tyrosine kinase inhibitors for treating osteoarthritis” (priority 1995, dated 2003).

One data set relates to bovine cartilage explant. The settings on record: cited from earlier work.
The test system of data set [1] is progression of osteoarthritis. The settings on record: animals; cited from earlier work.
For another data set, the target named is protein kinase C gamma (Homo sapiens, UniProt P05129). The settings on record: at 100 μM; cited from earlier work.
For a further data set, the target named is protein kinase C alpha (Homo sapiens, UniProt P17252). The settings on record: at 100 μM; cited from earlier work.
Another data set deals with protein kinase C beta (Homo sapiens, UniProt P05771). The settings on record: at 100 μm; cited from earlier work.
Data set [2] deals with Ca^2+-calmodulin dependent protein kinase II. The conditions noted are these: cited from earlier work.

The structures appear in SMILES notation.

Chain of protein kinase C beta (P05771 whole entry): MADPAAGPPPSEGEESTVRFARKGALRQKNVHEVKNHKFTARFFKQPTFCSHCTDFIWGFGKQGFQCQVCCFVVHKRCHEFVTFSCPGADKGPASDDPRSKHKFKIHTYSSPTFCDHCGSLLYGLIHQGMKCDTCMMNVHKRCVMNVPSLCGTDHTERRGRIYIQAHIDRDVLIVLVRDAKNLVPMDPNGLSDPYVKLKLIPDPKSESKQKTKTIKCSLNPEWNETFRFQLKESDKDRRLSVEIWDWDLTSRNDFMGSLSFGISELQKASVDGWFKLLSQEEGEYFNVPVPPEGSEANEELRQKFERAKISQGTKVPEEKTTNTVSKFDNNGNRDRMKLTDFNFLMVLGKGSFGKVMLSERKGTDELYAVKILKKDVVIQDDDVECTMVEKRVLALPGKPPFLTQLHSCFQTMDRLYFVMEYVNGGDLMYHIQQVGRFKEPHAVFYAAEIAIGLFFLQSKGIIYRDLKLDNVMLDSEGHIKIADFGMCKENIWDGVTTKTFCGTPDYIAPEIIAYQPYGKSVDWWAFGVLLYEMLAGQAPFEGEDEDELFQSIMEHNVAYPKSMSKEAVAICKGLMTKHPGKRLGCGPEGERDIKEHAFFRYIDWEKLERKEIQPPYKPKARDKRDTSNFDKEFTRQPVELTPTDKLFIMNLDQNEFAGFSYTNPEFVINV

On to `NC1=N/C(=C2/CCNC(=O)c3[nH]ccc32)C(=O)N1` [Z-debromohymenialdisine], for which, in the data set on bovine cartilage explant, the “inhibition of cartilage degradation in the bovine cartilage explant assay” value is “inhibit cartilage degradation”. Also, in data set [1], the progression of osteoarthritis entry was “slows the progression of osteoarthritis”.

Consider `NC1=N/C(=C2/CCNC(=O)c3[nH]ccc32)C(=O)N1` [debromohymenialdisine], for which the “inhibition of protein kinase C gamma” value at protein kinase C gamma is 108%. Moreover, the “inhibition of protein kinase C alpha” value at protein kinase C alpha is 97%. In addition, at protein kinase C beta, the “inhibition of protein kinase C beta” value was 95%. Further, the “inhibition of Ca2+-calmodulin dependent protein kinase II” value in data set [2] is listed as 94%.
